In BindingDB's records for doi:10.1021/jm00018a006 (University of Arizona, 1995):
*1 amine or outer side, *2 acyl side, *3 side chain or, on linkers, in order; H or OH if unused. Where a SMILES comes first, the peptide text is derived from it. Side-chain parts run from the residue outwards. [ ]: non-standard residue; d: D form. X4 = CC(C)C[C@@H](CN([C@@H](CCCN=C(N)N)C(=O)[*:2])[*:1])N[*:3]

Molecular target: Delta-type opioid receptor (Cavia porcellus)
Experiment: Binding affinity against delta opioid receptor of Guinea pig brain homogenate using [3H]c[D-Pen2,p-Cl-Phe4,D-Pen5]enkephalin

`CC[C@H](C)[C@H](NC(=O)[C@H](CCCN=C(N)N)NC(=O)[C@H](CCCN=C(N)N)NC[C@H](CC(C)C)NC(=O)[C@H](Cc1ccccc1)NC(=O)CNC(=O)CNC(=O)[C@@H](N)Cc1ccc(O)cc1)C(=O)N[C@@H](CCCN=C(N)N)C(=O)N1CCC[C@H]1C(=O)N[C@@H](CCCCN)C(N)=O` (H-[X4]([Phe-Gly-Gly-Tyr])RIRPK-NH2) showed an IC50 of 32 nM.
`CC[C@H](C)[C@H](NC(=O)[C@H](CCCN=C(N)N)NC[C@H](CCCCN)NC(=O)[C@H](CC(C)C)NC(=O)[C@H](Cc1ccccc1)NC(=O)CNC(=O)CNC(=O)[C@@H](N)Cc1ccc(O)cc1)C(=O)N[C@@H](CCCN=C(N)N)C(=O)N1CCC[C@H]1C(=O)N[C@@H](CCCCN)C(N)=O` showed an IC50 of 53 nM.
In the case of `CC[C@H](C)[C@H](NC(=O)[C@H](CCCN=C(N)N)NC(=O)[C@H](CCCN=C(N)N)NC(=O)[C@H](CC(C)C)NC(=O)[C@H](Cc1ccccc1)NC(=O)CNC(=O)CNC[C@@H](N)Cc1ccc(O)cc1)C(=O)N[C@@H](CCCN=C(N)N)C(=O)N1CCC[C@H]1C(=O)N[C@@H](CCCCN)C(N)=O`, the IC50 is reported as 198 nM.
